Assays:
[1] = molecular target: human recombinant BChE (rBChE) in solution (Homo sapiens, UniProt P06276); test: in solution stopped time assay for carbamoylation constants; assay type: biochemical; conditions: enzyme in solution, classical Ellman's assay
[2] = molecular target: immobilized human recombinant butyrylcholinesterase (rBChE) (Homo sapiens, UniProt P06276); test: rBChE-IMER on-line carbamoylation/decarbamoylation kinetics; assay type: biochemical; conditions: immobilized enzyme, 30 °C, flow rate 1.0 mL/min
Sequence of immobilized human recombinant butyrylcholinesterase (rBChE) (P06276 29-602): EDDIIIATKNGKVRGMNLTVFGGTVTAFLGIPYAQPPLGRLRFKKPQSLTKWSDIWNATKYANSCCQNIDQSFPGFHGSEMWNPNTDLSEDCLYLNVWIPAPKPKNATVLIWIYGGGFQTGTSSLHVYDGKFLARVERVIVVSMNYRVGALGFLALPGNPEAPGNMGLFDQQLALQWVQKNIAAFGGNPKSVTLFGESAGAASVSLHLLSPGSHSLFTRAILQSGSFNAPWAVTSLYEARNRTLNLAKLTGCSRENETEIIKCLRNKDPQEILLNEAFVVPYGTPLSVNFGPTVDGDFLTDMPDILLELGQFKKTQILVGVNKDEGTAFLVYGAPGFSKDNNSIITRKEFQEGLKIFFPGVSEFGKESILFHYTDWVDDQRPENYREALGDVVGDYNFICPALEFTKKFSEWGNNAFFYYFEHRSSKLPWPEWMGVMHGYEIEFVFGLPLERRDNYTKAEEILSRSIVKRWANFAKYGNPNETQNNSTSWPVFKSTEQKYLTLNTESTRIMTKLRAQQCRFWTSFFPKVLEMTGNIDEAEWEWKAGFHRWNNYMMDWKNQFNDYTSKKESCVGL

Sequence of human recombinant BChE (rBChE) in solution (P06276 29-602): as above

Row | SMILES | carbamoylation constant k2, rBChE in solution [1] | carbamoylation constant k2, rBChE-IMER [2]
1 | CC(C)c1ccc(NC(=O)Oc2ccc3c(c2)[C@]2(C)CCN[C@@H]2N3)cc1 [(-)-Bisnorcymserine] | 0.573 ± 0.068 min⁻¹ | 0.081 ± 0.004 min⁻¹
2 | CC(C)Cc1ccc(NC(=O)Oc2ccc3c(c2)[C@]2(C)CCN[C@@H]2N3)cc1 [(-)-Isobutylbisnorcymserine] | 0.634 ± 0.022 min⁻¹ | 0.049 ± 0.002 min⁻¹
3 | CN1CC[C@@]2(C)c3cc(OC(=O)Nc4ccccc4)ccc3N(C)[C@@H]12 [(-)-Phenserine, 3aS-(-)-phenylcarbamoyleseroline] | 3.094 ± 0.536 min⁻¹ | 0.486 ± 0.037 min⁻¹
4 | CNC(=O)Oc1ccc2c(c1)[C@]1(C)CCN(C)[C@@H]1N2C [(-)-Physostigmine, (-)-physostigmine, reference compound] | 0.479 ± 0.070 min⁻¹ | 0.161 ± 0.025 min⁻¹
